Format in all cases: in vivo, human
Experiment [1] concerns participants with type 2 diabetes and prevalent DKD. Briefly: CANVAS trial post hoc analysis: composite kidney outcome, canagliflozin vs placebo, by KidneyIntelX risk strata. The conditions noted are these: for incidence of the composite kidney outcome: canagliflozin arm. On the procedure:
(§1) Blood and urine samples for exploratory biomarker research can be stored during the CANVAS trial. In some instances, participants can be randomly assigned using a central web-based response system in a 1:1:1 ratio to treatment with 100 mg canagliflozin, 300 mg canagliflozin, or matching placebo. In some instances, participants can be assigned to treatment with canagliflozin or placebo followed for a median of 6.1 years. All participants, care providers, trial staff, and outcome assessors can be blinded to treatment allocation for the duration of the study. KidneyIntelX algorithm can be indicated for individuals with type 2 diabetes and prevalent DKD, defined by an eGFR ≥30 to 59.9 ml/min/1.73 m2 (G3a and G3b) or those with eGFR ≥60 ml/min/1.73 m2 with a UACR ≥30 mg/g to assess the risk for progressive decline in kidney function within a time period (e.g., 5 years). Thus, for analyses, the subgroup of the CANVAS population can be restricted to meet criteria for prevalent DKD at a time of enrollment.
(§2) A composite kidney outcome for such post hoc analysis can be defined as: A) progressive decline in kidney function (rapid kidney function decline (e.g., RKFD; with eGFR decline of ≥5 ml/min/year)); B) a sustained 40% decline of eGFR; or C) kidney failure defined as an eGFR <15 mL/min/1.73 m^2 or need for dialysis or kidney transplantation. In CANVAS, eGFR measurements were available at baseline, 6 weeks and annually. Since hemodynamic effects of SGLT2i on acute changes in eGFR, the anchor/baseline to define progressive decline in kidney function and 40% decline in eGFR for participants in the canagliflozin arm can be the eGFR value at 6 weeks. In some instances, when the eGFR value meet ≥40% decline from baseline only on the last eGFR obtained in the CANVAS protocol, then the event can be adjudicated by a blinded adjudication committee to determine qualification as a valid event. In some instances, eGFR slopes can be determined by linear mixed models.
Continuous baseline variables with normal distributions can be reported as means with standard deviations (SDs). Variables with skewed distributions can be reported as median values with interquartile range (IQRs) and can be natural logarithm transformed before analysis. Furthermore, categorical variables can be reported as percentages. Risk values can be calculated by the KidneyIntelX (using the diagnosis device 101) on the participants in the placebo and canagliflozin arms of CANVAS with prevalent DKD, with the inputs as per the currently commercially available test which include the following: baseline TNFR-1, TNFR-2 and KIM-1 levels, TNFR-2/TNFR-1 ratio, KIM-1/TNFR-1 ratio, eGFR, UACR, HbA1C, systolic BP, AST, platelets, and serum calcium. The risk score cutoffs that were previously validated can applied to the CANVAS participants with DKD and available baseline plasma. Each individual can be allocated a predicted probability of the composite outcome using the baseline inputs as per the risk value generated by the KidneyIntelX algorithm and a continuous KidneyIntelX score between 5 and 100 in increments of 5. For example, consistent with the pre-defined commercial cut offs, participants with a risk value between 5 and 45 can be classified as “low risk”, between 50 and 85 can be classified as “intermediate risk”, and those with a risk value between 90 and 100 can be classified as “high risk”. Therefore, by determining proportion experiencing the composite kidney event within the categorical risk strata and used logistic regression, the relative odds of the endpoint for high vs. low risk and intermediate risk score strata can be determined.
Proportion of participants that experienced composite kidney outcome by KidneyIntelX algorithm risk strata can be compared to a proportion as classified by participants' Kidney Disease Improving Global Outcomes (KDIGO) KDIGO risk strata based on their baseline eGFR and UACR value. […]

Experiment [2] has the same test system. The experiment is described as follows: CANVAS trial post hoc analysis: chronic eGFR slope, canagliflozin vs placebo, by risk strata. On the procedure:
as §1, §2
To explore whether baseline KidneyIntelX scores modified the treatment effect of canagliflozin versus placebo on the composite kidney outcome and chronic eGFR compared to the treatment effect as per the baseline KDIGO risk strata, tests for heterogeneity can be performed by adding interaction terms between KidneyIntelX or KDIGO and randomized treatment assignment to the relevant logistic regression models for the categorical outcome and mixed linear models for the eGFR slopes. The treatment effect of canagliflozin versus placebo on KidneyIntelX risk scores over time can be assessed by calculating the difference of change in risk values generated by the KidneyIntelX algorithm (e.g., using the diagnosis device 101) between treatment arms using mixed linear models. […]

The test system is the same in experiment [3]. Briefly: CANVAS trial post hoc analysis: KidneyIntelX risk score over time, canagliflozin vs placebo. On the procedure: Blood and urine samples for exploratory biomarker research can be stored during the CANVAS trial. In some instances, participants can be randomly assigned using a central web-based response system in a 1:1:1 ratio to treatment with 100 mg canagliflozin, 300 mg canagliflozin, or matching placebo. In some instances, participants can be assigned to treatment with canagliflozin or placebo followed for a median of 6.1 years. All participants, care providers, trial staff, and outcome assessors can be blinded to treatment allocation for the duration of the study. […]
Continuous baseline variables with normal distributions can be reported as means with standard deviations (SDs). […] Risk values can be calculated by the KidneyIntelX (using the diagnosis device 101) on the participants in the placebo and canagliflozin arms of CANVAS with prevalent DKD, with the inputs as per the currently commercially available test which include the following: baseline TNFR-1, TNFR-2 and KIM-1 levels, TNFR-2/TNFR-1 ratio, KIM-1/TNFR-1 ratio, eGFR, UACR, HbA1C, systolic BP, AST, platelets, and serum calcium. […] Therefore, by determining proportion experiencing the composite kidney event within the categorical risk strata and used logistic regression, the relative odds of the endpoint for high vs. low risk and intermediate risk score strata can be determined. […]

Structures are written as SMILES. “And” between values parts separate entries of the source, which are not always exact repeats. Equal entries are not always repeated.

As for `Cc1ccc([C@@H]2O[C@H](CO)[C@@H](O)[C@H](O)[C@H]2O)cc1Cc1ccc(-c2ccc(F)cc2)s1` [canagliflozin, (2S,3R,4R,5S,6R)-2-[3-[[5-(4-fluorophenyl)thiophen-2-yl]methyl]-4-methylphenyl]-6-(hydroxymethyl)oxane-3,4,5-triol], in experiment [1] (all participants with baseline biomarkers, 95% CI 0.49, 0.99), the “RR for composite kidney outcome, canagliflozin vs. placebo” value is 0.70. Also, the “incidence of the composite kidney outcome” value is 23.0% and 23.5% in experiment [1] (high risk KidneyIntelX stratum); 9.5% in experiment [1] (intermediate risk KidneyIntelX stratum, mean follow-up 5.6 years); 3.6% in experiment [1] (low risk KidneyIntelX stratum, mean follow-up 5.6 years). Moreover, the “composite kidney outcome occurrence” value in experiment [1] (canagliflozin group, all participants with baseline biomarkers (placebo 11.6%)) is reported as 8.9%. The “RR for the kidney outcome, canagliflozin vs. placebo” value in experiment [1] (high-risk KidneyIntelX stratum, 95% CI 0.38-1.18) came out at 0.67; in experiment [1] (intermediate KidneyIntelX stratum, 95% CI 0.36-0.98) it was 0.59; in experiment [1] (low-risk KidneyIntelX stratum, 95% CI 0.54-5.08), 1.65. The “absolute risk reduction (ARR) for composite kidney outcome” value in experiment [1] (high-risk KidneyIntelX stratum, vs placebo arm 31.4%) is given as 7.9%. Further, the “difference in chronic eGFR slope, canagliflozin vs. placebo (protection for eGFR decline)” value is 2.16 ml/min/1.73 m2 in experiment [2] (high risk KidneyIntelX stratum), 0.66 ml/min/1.73 m2 in experiment [2] (low risk KidneyIntelX stratum) and 1.52 ml/min/1.73 m2 in experiment [2] (moderate/intermediate risk KidneyIntelX stratum). For the same molecule, the “difference in chronic eGFR slope, canagliflozin vs. placebo” value in experiment [2] (highest risk KDIGO stratum) amounted to 1.31 ml/min/1.73 m2. The “duration of effect on KidneyIntelX” value in experiment [3] (over follow-up, vs placebo (FIG. 24)) is given as “persisted over time until the end of follow-up”. In addition, the “decrease of KidneyIntelX from baseline to one year” value in experiment [3] (randomized to canagliflozin, 95% CI -6.9 to -3.9, placebo increased 6.2%, p<0.001) is on record as 5.4%.

For the origin of these results see US20250273333A1, “Methods and Apparatus for Diagnosis of Progressive Kidney Function Decline Using a Machine Learning Model” (ICAHN SCHOOL OF MEDICINE AT MOUNT SINAI, priority 2020, published 2025).
